In US9611262B2, “Substituted 2-azabicycles and their use as orexin receptor modulators” (JANSSEN PHARMACEUTICA NV, priority 2014, dated 2017):

Assays:
human orexin 1 receptor = human orexin 1 receptor (Homo sapiens (Human), UniProt O43613); experiment: Human orexin 1 receptor radioligand binding (competitive); conditions: CHO cells stably expressing human orexin 1 receptor; 4 nM radioligand; averages of 2-20 runs; read-out: hOX1 Ki
Description: The in vitro affinity of the compounds of the invention for the rat/human orexin 1 and human orexin 2 receptors was determined by competitive radioligand binding using [^3H](1-(5-(2-fluoro-phenyl)-2-methyl-thiazol-4-yl)-1-((S)-2-(5-phenyl-(1,3,4)oxadiazol-2-ylmethyl)-pyrrolidin-1-yl)-methanone) (Langmead et al., 2004) and [^3H]EMPA (n-ethyl-2[96-methoxy-pyridin-3-yl)-(toluene-2-sulfonyl)-amino]-N-pyridin-3-ylmethyl acetamide), respectively (Langmead et al., 2004, British Journal of Pharmacology 141:340-346; Malherbe et al., 2004, British Journal of Pharmacology 156:1326-41).
Data are analyzed using pc-Sandy macro and graphed on Graphpad Prism 5. For analysis, each concentration point is averaged from triplicate values and the averaged values are plotted on Graphpad Prism. The IC50 was determined by applying the following equation (GraphPad Prism 5.0, San Diego) for one site competition where X=log (concentration) and Y=specific binding. Top denotes the total [^3H]— (1-(5-(2-fluoro-phenyl)-2-methyl-thiazol-4-yl)-1-((S)-2-(5-phenyl-(1,3,4)oxadiazol-2-ylmethyl)-pyrrolidin-1-yl)-methanone) binding, bottom denotes the nonspecific [^3H]— (1-(5-(2-fluoro-phenyl)-2-methyl-thiazol-4-yl)-1-((S)-2-(5-phenyl-(1,3,4)oxadiazol-2-ylmethyl)-pyrrolidin-1-yl)-methanone) binding. Graphpad Prism calculates Ki value from IC50 and the pre-determined Kd values for [^3H]— (1-(5-(2-fluoro-phenyl)-2-methyl-thiazol-4-yl)-1-((S)-2-(5-phenyl-(1,3,4)oxadiazol-2-ylmethyl)-pyrrolidin-1-yl)-methanone) and [^3H]-EMPA. The Ki for each compound is then uploaded into 3DX. Each run comprises individual compounds in triplicate. The data in Table 1 and Table 2 represent averages from between 2-20 runs
Rat and Human Orexin 1 Receptor Radioligand Binding Studies
Human Embryonic Kidney 293 cells (HEK293) stably expressing rat orexin 1 receptor (Genebank accession number NM_001525) or Chinese ovary cells (CHO) stably expressing human orexin 1 receptor (Genebank accession number […]) were grown to confluency in DMEM (Hyclone, cat # SH30022), 10% FBS, 1× Pen/Strep, 1× sodium pyruvate, 10 mM HEPES, 600 μg/mL G418 and DMEM/F12 (Gibco, Cat #11039), 10% FBS, 1× Pen/Strep, 600 μg/mL G418 media, respectively on 150 cm^2 tissue culture plates, washed with 5 mM EDTA in PBS (HyClone Dulbecco's Phosphate Buffered Saline 1× with Calcium and Magnesium, Cat # SH30264.01, hereafter referred to simply as PBS) and scraped into 50 ml tubes. After centrifugation (2K×G, 5 min at 4° C.), the supernatant was aspirated and the pellets frozen and stored at −80° C. Cells were resuspended in PBS in the presence of 1 tablet of protease inhibitor cocktail (Roche, Cat. #11836145001) per 50 mL. […] Competition binding experiments in 96 well polypropylene plates were performed using [^3H]— (1-(5-(2-fluoro-phenyl)-2-methyl-thiazol-4-yl)-1-((S)-2-(5-phenyl-(1,3,4)oxadiazol-2-ylmethyl)-pyrrolidin-1-yl)-methanone) (Moraveck Corporation, specific activity=35.3 Ci/mmol), diluted to a 10 nM concentration in PBS (4 nM final). Compounds were solubilized in 100% DMSO (Acros Organics, Cat. #61042-1000) and tested over a range of 7 concentrations (from 0.1 nM to 10 μM). The final concentration of DMSO in the reactions is equal to or less than 0.1%. Total and nonspecific binding was determined in the absence and presence of 10 μM almorexant. The total volume of each reaction is 200 μL (20 μL of diluted compounds, 80 μL of [^3H]— (1-(5-(2-fluoro-phenyl)-2-methyl-thiazol-4-yl)-1-((S)-2-(5-phenyl-(1,3,4)oxadiazol-2-ylmethyl)-pyrrolidin-1-yl)-methanone) diluted in PBS and 100 μL of the cell suspension). Reactions were run for 60 min at room temperature and terminated by filtration through GF/C filter plates (PerkinElmer, Cat. #6005174) presoaked in 0.3% polyethylenimine using the cell harvester (PerkinElmer Filtermate). The plates were washed 3 times by aspirating 30 ml PBS through the plates. Plates were dried in 55° C. oven for 60 min, scintillation fluid was added, and the radioactivity was counted on a Topcount (Packard). […]

human orexin 2 receptor = human orexin 2 receptor (Homo sapiens (Human), UniProt O43614); experiment: Human orexin 2 receptor radioligand binding ([3H]-EMPA competition); conditions: HEK293 stably expressing human orexin 2 receptor; 2 nM [3H]-EMPA; averages of 2-20 runs; read-out: hOX2 Ki
Chain of human orexin 2 receptor (O43614 whole entry): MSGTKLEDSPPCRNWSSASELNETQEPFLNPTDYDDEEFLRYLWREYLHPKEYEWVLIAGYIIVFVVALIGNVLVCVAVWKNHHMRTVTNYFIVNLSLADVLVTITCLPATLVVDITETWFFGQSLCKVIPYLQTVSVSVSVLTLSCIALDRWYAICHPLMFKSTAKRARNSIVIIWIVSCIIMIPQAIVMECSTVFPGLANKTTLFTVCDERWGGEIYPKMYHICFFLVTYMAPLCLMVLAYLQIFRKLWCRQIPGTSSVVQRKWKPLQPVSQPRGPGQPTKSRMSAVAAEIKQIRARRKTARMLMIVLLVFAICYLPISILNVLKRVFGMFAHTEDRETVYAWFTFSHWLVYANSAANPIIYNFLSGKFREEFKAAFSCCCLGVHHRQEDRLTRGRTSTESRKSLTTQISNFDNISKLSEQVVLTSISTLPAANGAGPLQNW
Method in brief: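 Membranes-free whole HEK293 cells stably expressing human OX2 receptor incubated with [3H]-EMPA and compound (7 concentrations, 0.1 nM–10 μM, ≤0.1% DMSO) for 60 min at room temperature; nonspecific binding with 10 μM almorexant. Filtration and scintillation counting; one-site IC50 converted to Ki using predetermined Kd, triplicates averaged over 2-20 runs.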

rat orexin 1 receptor = rat orexin 1 receptor (Rattus norvegicus, UniProt P56718); experiment: Rat orexin 1 receptor radioligand binding (competitive); conditions: HEK293 cells stably expressing rat orexin 1 receptor; 4 nM radioligand; averages of 2-20 runs; read-out: rOX1 Ki
Method in brief: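 Competition binding used HEK293 cells expressing rat OX1 or CHO cells expressing human OX1, with 4 nM final [3H]-labelled thiazolyl-oxadiazolyl-pyrrolidinyl methanone radioligand in PBS. Compounds were tested at 7 concentrations (0.1 nM–10 μM) for 60 min at room temperature, then filtered; 10 μM almorexant defined nonspecific binding. Ki was derived from the one-site IC50 and the radioligand Kd.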

Chain of human orexin 1 receptor (O43613 whole entry): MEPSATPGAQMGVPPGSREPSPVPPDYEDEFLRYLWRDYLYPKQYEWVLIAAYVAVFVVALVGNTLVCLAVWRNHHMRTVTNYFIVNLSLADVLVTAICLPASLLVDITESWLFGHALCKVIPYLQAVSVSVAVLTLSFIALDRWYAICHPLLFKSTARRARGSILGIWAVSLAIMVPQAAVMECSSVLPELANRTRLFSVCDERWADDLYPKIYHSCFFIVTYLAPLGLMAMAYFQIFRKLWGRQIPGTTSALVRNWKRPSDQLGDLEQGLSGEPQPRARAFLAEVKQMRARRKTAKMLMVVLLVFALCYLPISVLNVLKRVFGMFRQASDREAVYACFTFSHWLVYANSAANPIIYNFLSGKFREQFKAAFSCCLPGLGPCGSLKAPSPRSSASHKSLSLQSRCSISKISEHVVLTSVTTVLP

Row | Ki (human orexin 1 receptor) [nM] | Ki (human orexin 2 receptor) [nM] | Ki (rat orexin 1 receptor) [nM] | Structure (SMILES)
1 | 14 | 236 | 11 | Cc1ccc(-n2nccn2)c(C(=O)N2C(C)C3CC(Nc4ccc(C(F)(F)F)cn4)C2C3)n1 (racemic) [Example 58, (R/S)-(6-methyl-3-(2H-1,2,3-triazol-2-yl)pyridin-2-yl)(3-methyl-6-((5-(trifluoromethyl)pyridin-2-yl)amino)-2-azabicyclo[2.2.1]heptan-2-yl)methanone]
2 | 53 | 4100 | 20 | Cc1cnc(C(=O)N2C(C)C3CC(Nc4ccc(C(F)(F)F)cn4)C2C3)c(-c2ncccn2)c1 (racemic) [Example 59, (R/S)-(5-methyl-3-(pyrimidin-2-yl)pyridin-2-yl)(3-methyl-6-((5-(trifluoromethyl)pyridin-2-yl)amino)-2-azabicyclo[2.2.1]heptan-2-yl)methanone]
3 | 29 | 1500 | 32 | O=C(c1c(F)cccc1-c1ncco1)N1C(CF)C2CC(Oc3ccc(C(F)(F)F)cn3)C1C2 (racemic) [Example 71]
4 | 170 | 418 | 177 | Cc1cnc(C(=O)N2C(CC(C)C)C3CC(Oc4ccc(C(F)(F)F)cn4)C2C3)c(-n2nccn2)c1 (racemic) [Example 208, (R/S)-[2-isobutyl-5-[[5-(trifluoromethyl)-2-pyridyl]oxy]-3-azabicyclo[2.2.1]heptan-3-yl]-[5-methyl-3-(triazol-2-yl)-2-pyridyl]methanone]
5 | 24 | 3000 | 44 | CC(C)CC1C2CC(Oc3ccc(C(F)(F)F)cn3)C(C2)N1C(=O)c1ccccc1-c1ncccn1 (racemic) [Example 209, (R/S)-[2-isobutyl-5-[[5-(trifluoromethyl)-2-pyridyl]oxy]-3-azabicyclo[2.2.1]heptan-3-yl]-(2-pyrimidin-2-ylphenyl)methanone]
6 | 55 | 3800 | 100 | CC(C)CC1C2CC(Oc3ccc(C(F)(F)F)cn3)C(C2)N1C(=O)c1ccccc1-c1ncc(F)cn1 (racemic) [Example 212, (R/S)-[2-(5-fluoropyrimidin-2-yl)phenyl]-[2-isobutyl-5-[[5-(trifluoromethyl)-2-pyridyl]oxy]-3-azabicyclo[2.2.1]heptan-3-yl]methanone]
7 | 11 | 1500 | 11 | CCC1C2CC(Oc3ccc(C(F)(F)F)cn3)C(C2)N1C(=O)c1ncc(C)cc1-n1nccn1 (racemic) [Example 216, (R/S)-[2-ethyl-5-[[5-(trifluoromethyl)-2-pyridyl]oxy]-3-azabicyclo[2.2.1]heptan-3-yl]-[5-methyl-3-(triazol-2-yl)-2-pyridyl]methanone]
8 | 9 | 243 | 13 | CCC1C2CC(Oc3ccc(C(F)(F)F)cn3)C(C2)N1C(=O)c1cccc(F)c1-c1ncccn1 (racemic) [Example 217, (R/S)-[2-ethyl-5-[[5-(trifluoromethyl)-2-pyridyl]oxy]-3-azabicyclo[2.2.1]heptan-3-yl]-(3-fluoro-2-pyrimidin-2-yl-phenyl)methanone]
9 | 8 | 595 | 5 | C[C@@H]1[C@H]2C[C@@H](Oc3ccc(C(F)(F)F)cn3)[C@H](C2)N1C(=O)c1cccc(F)c1-n1nccn1 (relative stereo) [Example 27, (3-fluoro-2-(2H-1,2,3-triazol-2-yl)phenyl)((1S*,3R*,4R*,6R*)-3-methyl-6-((5-(trifluoromethyl)pyridin-2-yl)oxy)-2-azabicyclo[2.2.1]heptan-2-yl)methanone]
10 | 14 | 836 | 5 | C[C@@H]1[C@H]2C[C@@H](Oc3ccc(C(F)(F)F)cn3)[C@H](C2)N1C(=O)c1cc(F)ccc1-n1nccn1 (relative stereo) [Example 29, (5-fluoro-2-(2H-1,2,3-triazol-2-yl)phenyl)((1S*,3R*,4R*,6R*)-3-methyl-6-((5-(trifluoromethyl)pyridin-2-yl)oxy)-2-azabicyclo[2.2.1]heptan-2-yl)methanone]
11 | 8 | 1900 | 6 | C[C@@H]1[C@H]2C[C@@H](Oc3ccc(C(F)(F)F)cn3)[C@H](C2)N1C(=O)c1ncccc1-c1ncccn1 (relative stereo) [Example 32, ((1S*,3R*,4R*,6R*)-3-methyl-6-((5-(trifluoromethyl)pyridin-2-yl)oxy)-2-azabicyclo[2.2.1]heptan-2-yl)(3-(pyrimidin-2-yl)pyridin-2-yl)methanone]
12 | 14 | 6300 | 11 | Cc1cnc(C(=O)N2[C@H](C)[C@H]3C[C@@H](Oc4ccc(C(F)(F)F)cn4)[C@@H]2C3)c(-c2ncccc2F)c1 (relative stereo) [Example 34, (3-fluoro-5′-methyl-[2,3′-bipyridin]-2′-yl)((1S*,3R*,4R*,6R*)-3-methyl-6-((5-(trifluoromethyl)pyridin-2-yl)oxy)-2-azabicyclo[2.2.1]heptan-2-yl)methanone]
13 | 283 | 4900 | 216 | C[C@@H]1[C@H]2C[C@@H](Oc3ccc(C(F)(F)F)nc3)[C@H](C2)N1C(=O)c1cccc(F)c1-n1nccn1 (relative stereo) [Example 38, (3-fluoro-2-(2H-1,2,3-triazol-2-yl)phenyl)((1S*,3R*,4R*,6R*)-3-methyl-6-((6-(trifluoromethyl)pyridin-3-yl)oxy)-2-azabicyclo[2.2.1]heptan-2-yl)methanone]
14 | 123 | 3600 | 90 | Cc1cccc(C(=O)N2[C@H](C)[C@H]3C[C@@H](Oc4ccc(C(F)(F)F)nc4)[C@@H]2C3)c1-n1nccn1 (relative stereo) [Example 39, (3-methyl-2-(2H-1,2,3-triazol-2-yl)phenyl)((1S*,3R*,4R*,6R*)-3-methyl-6-((6-(trifluoromethyl)pyridin-3-yl)oxy)-2-azabicyclo[2.2.1]heptan-2-yl)methanone]
15 | 29 | 4300 | 24 | Cc1ccc(-n2nccn2)c(C(=O)N2[C@H](C)[C@H]3C[C@@H](Oc4cnc(C(F)(F)F)cn4)[C@@H]2C3)n1 (relative stereo) [Example 46, (6-methyl-3-(2H-1,2,3-triazol-2-yl)pyridin-2-yl)((1S*,3R*,4R*,6R*)-3-methyl-6-((5-(trifluoromethyl)pyrazin-2-yl)oxy)-2-azabicyclo[2.2.1]heptan-2-yl)methanone]
